Where two headings read alike, the source gives them in different places.

We go through two compounds from PMC6325219, “Preclinical Characterization of NVR 3-778, a First-in-Class Capsid Assembly Modulator against Hepatitis B Virus” (Antimicrobial Agents and Chemotherapy, 2018).

The subject of data set [1] is HBV. The experiment in a line: Antiviral studies using HepG2.2.15 cells (HBV DNA and HBV RNA readouts). The format is cell-based, hepatitis B virus (GT D). The note with it: for Effect on secreted HBV RNA, single drug: 6 days, increasing concentrations; for EC50: Hepatitis B virus. On the procedure:
(§1) In combination studies, cells were treated with compounds either alone or in combination after combining the compounds in a checkerboard format. In studies examining the effect of human serum, serially diluted NVR 3-778 was added into cell culture medium containing 0% to 40% human serum (BioreclamationIVT). Cells were incubated with the compounds for 3 days, after which the medium was removed, fresh medium containing the compounds was added to the cells, and the cells were incubated for another 3 days prior to harvesting of the supernatants or cells for antiviral assays. To quantify intracellular encapsidated rcDNA or encapsidated pgRNA, cells were first solubilized using lysis buffer containing 1% NP-40 and 10 mM CaCl2. The cytoplasmic fraction was then treated with S7 nuclease (6 units) to remove nonencapsidated nucleic acids, after which the S7 nuclease was inactivated by the addition of EDTA (0.5 M). […] The levels of HBV DNA were determined by a bDNA assay as described above (Affymetrix). Supernatants or cell lysates containing HBV RNA were treated with proteinase K (2.5 µg) at 50°C for 40 min, transferred to a capture plate containing HBV RNA probe sets, and hybridized overnight at 55°C. Captured HBV RNA was measured by the addition of a chemiluminescent substrate using a QuantiGene assay (Affymetrix). […] At day 6, the CellTiter-Glo reagent was added to the cells and viability was determined according to the manufacturer’s protocol (Promega). Luminescence signals were measured at 0.2 s using a Victor X4 multimode plate reader (PerkinElmer).

The test system of another data set is HepG2.2.15 cells. Put plainly: Cell viability of HepG2.2.15 cells (ATP levels, CellTiter-Glo). The format is cell-based. The following applies: NVR 3-778 up to 4 μM and LMV up to 1.5 μM, alone or in combination, 6 days. The protocol: as §1
In data set [2] the test system is HBV core protein variant I105L. The experiment in a line: Transient-transfection antiviral study in HepG2 cells, core variant I105L. It is filed as cell-based, hepatitis B virus. The note with it: for EC50 FC, I105L: ratio of mean EC50 for core variant over wild-type HBV.
Description: (§2) Cells were cotransfected with the HBV plasmids (100 ng/well) and a Gaussia expression plasmid (10 ng/well) (Thermo Scientific) using the Lipofectamine LTX Plus transfection reagent (Life Technologies). Transfection mixtures were removed after overnight incubation, and cells were treated with serially diluted NVR 3-778 at a final dimethyl sulfoxide (DMSO) concentration of 0.5%. After 3 days of incubation with the compound, the supernatants were collected and secreted Gaussia luciferase was measured using a Gaussia Flash luciferase assay kit (Thermo Scientific). […] Samples were diluted into lysis buffer (Affymetrix) containing 2.5 µg proteinase K (Affymetrix) at 50°C for 40 min. Intracellular encapsidated HBV DNA was denatured for 30 min at 25°C in 0.2 M NaOH (Sigma) and incubated with HBV DNA probes designed to hybridize to the minus-strand HBV DNA (Affymetrix). The denatured DNA was subsequently detected using a QuantiGene assay kit, according to the branched DNA (bDNA) assay recommended by the manufacturer (Affymetrix).
A further data set deals with HBV GT B (wild-type HBV). Put plainly: Transient-transfection antiviral study in HepG2 cells, GT B (wild-type HBV). The following applies: for EC50: Hepatitis B virus; for EC50 FC, wild type: reference, ratio to wild-type HBV. It is filed as cell-based, hepatitis B virus.
The test system of data set [3] is HBV. The experiment in a line: Combination study of NVR 3-778 with nucleos(t)ide analogs in HepG2.2.15 cells (MacSynergy II, CalcuSyn). The format is cell-based, hepatitis B virus (GT D). On the procedure: The effect of the compound combinations on cell viability was evaluated by measuring the intracellular ATP levels of HepG2.2.15 cells.
HepG2.2.15 cells were seeded in 96-well plates at a density of 40,000 cells/well and incubated with serially diluted compounds at a final DMSO concentration of 0.5%. In combination studies, cells were treated with compounds either alone or in combination after combining the compounds in a checkerboard format. In studies examining the effect of human serum, serially diluted NVR 3-778 was added into cell culture medium containing 0% to 40% human serum (BioreclamationIVT). Cells were incubated with the compounds for 3 days, after which the medium was removed, fresh medium containing the compounds was added to the cells, and the cells were incubated for another 3 days prior to harvesting of the supernatants or cells for antiviral assays. To quantify intracellular encapsidated rcDNA or encapsidated pgRNA, cells were first solubilized using lysis buffer containing 1% NP-40 and 10 mM CaCl2. The cytoplasmic fraction was then treated with S7 nuclease (6 units) to remove nonencapsidated nucleic acids, after which the S7 nuclease was inactivated by the addition of EDTA (0.5 M). To quantify extracellular HBV DNA or HBV RNA, supernatants from HepG2.2.15 cells were treated with Turbo DNase at 37°C for 60 min, followed by inactivation of DNase at 75°C for 15 min. The levels of HBV DNA were determined by a bDNA assay as described above (Affymetrix). Supernatants or cell lysates containing HBV RNA were treated with proteinase K (2.5 µg) at 50°C for 40 min, transferred to a capture plate containing HBV RNA probe sets, and hybridized overnight at 55°C. Captured HBV RNA was measured by the addition of a chemiluminescent substrate using a QuantiGene assay (Affymetrix). To determine the cytotoxicity effect of the compounds on proliferating cells, HepG2.2.15 cells were seeded in 96-well plates at a density of 10,000 cells/well and incubated with serially diluted compounds at a final DMSO concentration of 0.5% for 3 days, after which the medium was removed, fresh medium containing the compounds was added to the cells, and the cells were incubated for another 3 days. At day 6, the CellTiter-Glo reagent was added to the cells and viability was determined according to the manufacturer’s protocol (Promega). Luminescence signals were measured at 0.2 s using a Victor X4 multimode plate reader (PerkinElmer).
To determine percent inhibition, the mean background signal from wells containing only culture medium was subtracted from the signal for all other samples, and percent inhibition at each compound concentration was calculated by normalization to the signals for HepG2.2.15 cells treated with 0.5% DMSO. […] Both CalcuSyn and MacSynergy II (Ann Arbor, MI) software were used to evaluate the effect of compound combinations ([27]). After data analysis at the 95% confidence level, values of synergy or antagonism of <25 µM^2% were defined as insignificant, those between 25 and 50 µM^2% were defined as minor, those between 50 and 100 µM^2% were defined as moderate, and those of >100 µM^2% were defined as strong.

[4] abbreviates: in combination with NVR 3-778, HepG2.2.15 cells, 6 days, MacSynergy II, 95% confidence.
Where [5] appears, read: HepG2.2.15 cells, 6 days, LMV 0.15-1.5 μM.

Description for HBV GT B (wild-type HBV): as §2

Consider `Nc1ccn([C@@H]2CS[C@H](CO)O2)c(=O)n1` [LMV, lamivudine, reference compound], for which the “Effect on secreted HBV RNA, single drug” value with HBV [1] (HepG2.2.15 cells) is “increased the production of secreted HBV RNA”. The concentration giving a half-maximal response (EC50) with HBV [1] (HepG2.2.15, values used as starting concentrations of the combination study, read-out: EC50 against HBV DNA replication in HepG2.2.15 cells) amounted to 150 nM; in the data set on HBV GT B (wild-type HBV) (HepG2, read-out: WT EC50) it was 530 ± 120 nM. Moreover, the “Effect on cell viability” value in the data set on HepG2.2.15 cells is recorded as “did not affect cell viability”. In data set [2], the “EC50 FC, I105L” value came to 1.3 fold. Also, the “EC50 FC, wild type” value in the data set with HBV GT B (wild-type HBV) was determined as 1 fold. Also, the Antagonism with HBV [3] (setting [4]) is recorded as −14.3 μM^2%. Further, the Synergy in the data set on HBV [3] (setting [4]) was 5.1 μM^2%. The CalcuSyn-predicted effect entry in the data set with HBV [3] (in combination with NVR 3-778, based on overall CI) is “Additive”.

For `O=C(Nc1cc(F)c(F)c(F)c1)c1ccc(F)c(S(=O)(=O)N2CCC(O)CC2)c1` [NVR 3-778], in the data set with HBV [1] (HepG2.2.15 cells), the “Effect on secreted HBV RNA, single drug” value is on record as “inhibited the production of secreted HBV RNA”. In addition, the concentration giving a half-maximal response (EC50) with HBV [1] (HepG2.2.15 cells, QuantiGene assay, read-out: EC50, intracellular encapsidated pgRNA (mean)) was found to be 440 nM; in the data set on HBV [1] (HepG2.2.15 cells, branched DNA assay, read-out: EC50, intracellular encapsidated rcDNA (mean)), 340 nM; with HBV [1] (HepG2.2.15 cells, supernatant, read-out: EC50, secreted HBV DNA (mean)), 400 nM; with HBV [1] (HepG2.2.15 cells, supernatant, read-out: EC50, secreted HBV RNA (mean)), 600 nM; in data set [2] (Hepatitis B virus, HepG2, read-out: EC50, core variant I105L), 340 ± 130 nM; with HBV GT B (wild-type HBV) (HepG2, 72 h, read-out: EC50 (mean), HBV GT B) it was 200 nM. For the same compound, the 50% effective concentration (EC50) in the data set with HBV GT B (wild-type HBV) (HepG2, read-out: EC50, wild type HBV) was 230 ± 110 nM; in the data set with HBV GT B (wild-type HBV) (HepG2, read-out: WT EC50), 310 ± 100 nM. Further, the “Effect on cell viability” value in the data set on HepG2.2.15 cells is listed as “did not affect cell viability”. For the same compound, the “EC50 FC, I105L” value in data set [2] is recorded as 1.5 fold. The “EC50 FC, wild type” value with HBV GT B (wild-type HBV) was 1 fold. In addition, the “Effect of adding 0.4 μM NVR 3-778 to LMV on secreted HBV RNA” value with HBV [3] (setting [5]) is reported as “partially reversed the increase in the level of secreted HBV RNA induced by LMV”. The “Effect of adding 2 μM and 4 μM NVR 3-778 to LMV on secreted HBV RNA” value with HBV [3] (setting [5]) is reported as “completely reverted the LMV effect”.
